The record followed here is ChEMBL document CHEMBL4376806, “Antibiotic Adjuvants: Make Antibiotics Great Again!” (2019).

Experiment [1] concerns Klebsiella pneumoniae. The experiment in a line: Inhibition of Beta-lactamase SHV-2 in Klebsiella pneumoniae IP86 assessed as potentiation of ceftazidime-induced antibacterial activity by measuring ceftazidime MIC (reference value: 64 ug/ml).
For experiment [2], the target named is Beta-lactamase TEM (Escherichia coli) (UniProt P62593). The experiment in a line: Inhibition of beta-lactamase TEM-1 in Escherichia coli GN5482 assessed as potentiation of ceftazidime-induced antibacterial activity by measuring ceftazidime MIC (reference value: 4 ug/ml).
The subject of experiment [3] is Klebsiella pneumoniae. Nature of the experiment: Inhibition of beta-lactamase TEM-4 in Klebsiella pneumoniae 25637 assessed as potentiation of ceftazidime-induced antibacterial activity by measuring ceftazidime MIC (reference value: 32 ug/ml).
The subject of experiment [4] is Escherichia coli. The experiment in a line: Inhibition of Beta-lactamase PER-1 in Escherichia coli KB10 assessed as potentiation of ceftazidime-induced antibacterial activity by measuring ceftazidime MIC (Rvb >64 ug/ml).
Experiment [5] has as its system Klebsiella pneumoniae. The experiment in a line: Inhibition of beta-lactamase TEM-2 in Klebsiella pneumoniae IP1 assessed as potentiation of ceftazidime-induced antibacterial activity by measuring ceftazidime MIC (reference value: 16 ug/ml).
Experiment [6] concerns Escherichia coli. Nature of the experiment: Inhibition of beta-lactamase TEM-8 in Escherichia coli CF3 assessed as potentiation of ceftazidime-induced antibacterial activity by measuring ceftazidime MIC (reference value: 64 ug/ml).
Experiment [7] concerns the target Beta-lactamase CTX-M-27 (Escherichia coli) (UniProt Q840M4). Nature of the experiment: Inhibition of beta-lactamase CTX-M-27 in Escherichia coli (EC113) ST 131 assessed as potentiation of piperacillin-induced antibacterial activity by measuring piperacillin MIC at 10 ug/ml incubated for 18 hrs by CLSI based broth microtitre dilution method (Rvb >64 ug/ml).
Experiment [8] shares this target. The experiment in a line: Inhibition of beta-lactamase CTX-M-27 in Escherichia coli (EC113) ST 131 assessed as potentiation of ampicillin-induced antibacterial activity by measuring ampicillin MIC at 10 ug/ml incubated for 18 hrs by CLSI based broth microtitre dilution method (Rvb >16 ug/ml).
The target is the same in experiment [9]. Nature of the experiment: Inhibition of beta-lactamase CTX-M-27 in Escherichia coli (EC113) ST 131 assessed as potentiation of cefepime-induced antibacterial activity by measuring cefepime MIC at 10 ug/ml incubated for 18 hrs by CLSI based broth microtitre dilution method (Rvb >32 ug/ml).
The target is the same in experiment [10]. The experiment in a line: Inhibition of beta-lactamase CTX-M-27 in Escherichia coli (EC113) ST 131 assessed as potentiation of ceftazidime-induced antibacterial activity by measuring ceftazidime MIC at 10 ug/ml incubated for 18 hrs by CLSI based broth microtitre dilution method (reference value: 8 ug/ml).
The target is the same in experiment [11]. The experiment in a line: Inhibition of beta-lactamase CTX-M-27 in Escherichia coli (EC113) ST 131 assessed as potentiation of cefazolin-induced antibacterial activity by measuring cefazolin MIC at 10 ug/ml incubated for 18 hrs by CLSI based broth microtitre dilution method (Rvb >16 ug/ml).
The target is the same in experiment [12]. Nature of the experiment: Inhibition of beta-lactamase CTX-M-27 in Escherichia coli (EC113) ST 131 assessed as potentiation of ceftriaxone-induced antibacterial activity by measuring ceftriaxone MIC at 10 ug/ml incubated for 18 hrs by CLSI based broth microtitre dilution method (Rvb >32 ug/ml).
Experiment [13] has the same target. The experiment in a line: Inhibition of beta-lactamase CTX-M-27 in Escherichia coli (EC113) ST 131 assessed as potentiation of aztreonam-induced antibacterial activity by measuring aztreonam MIC at 10 ug/ml incubated for 18 hrs by CLSI based broth microtitre dilution method (Rvb >16 ug/ml).
For experiment [14], the system named is MexAB/OprM (Pseudomonas aeruginosa (strain ATCC 15692 / DSM 22644 / CIP 104116 / JCM14847 / LMG 12228 / 1C / PRS 101 / PAO1)), P52477+P52002+Q51487 [UNDEFINED MUTATION]. Nature of the experiment: Inhibition of MexAB/OprM nalB mutant in Pseudomonas aeruginosa PAO1 K1455 assessed as potentiation of cefotaxime-induced antibacterial activity by measuring cefotaxime MIC at 20 ug/ml incubated for 18 hrs by CLSI based broth microtitre dilution method (reference value: 64 ug/ml).

For experiment [15] the test system is unchanged. The experiment in a line: Inhibition of MexAB/OprM nalB mutant in Pseudomonas aeruginosa PAO1 K1455 assessed as potentiation of novobiocin-induced antibacterial activity by measuring novobiocin MIC at 20 ug/ml incubated for 18 hrs by CLSI based broth microtitre dilution method (Rvb > 2048 ug/ml).
Experiment [16] shares this test system. The experiment in a line: Inhibition of MexAB/OprM nalB mutant in Pseudomonas aeruginosa PAO1 K1455 assessed as potentiation of tetracycline-induced antibacterial activity by measuring tetracycline MIC at 20 ug/ml incubated for 18 hrs by CLSI based broth microtitre dilution method (reference value: 64 ug/ml).
The test system is the same in experiment [17]. Nature of the experiment: Inhibition of MexAB/OprM nalB mutant in Pseudomonas aeruginosa PAO1 K1455 assessed as potentiation of erythromycin-induced antibacterial activity by measuring erythromycin MIC at 20 ug/ml incubated for 18 hrs by CLSI based broth microtitre dilution method (reference value: 256 ug/ml).
Experiment [18] has the same test system. Nature of the experiment: Inhibition of MexAB/OprM nalB mutant in Pseudomonas aeruginosa PAO1 K1455 assessed as potentiation of rifampin-induced antibacterial activity by […] at 20 ug/ml incubated for 18 hrs by CLSI based broth microtitre dilution method (reference value: 16 ug/ml).
The test system is the same in experiment [19]. The experiment in a line: Inhibition of MexAB/OprM nalB mutant in Pseudomonas aeruginosa PAO1 K1455 assessed as potentiation of levofloxacin-induced antibacterial activity by measuring levofloxacin MIC at 20 ug/ml incubated for 18 hrs by CLSI based broth microtitre dilution method (reference value: 2 ug/ml).
In experiment [20] the test system is Streptococcus pyogenes. The experiment in a line: Synergistic antibacterial activity against Streptococcus pyogenes assessed as fractional inhibitory concentration index in presence of ampicillin by checkerboard assay. It is filed as functional.
Experiment [21] concerns Staphylococcus aureus. The experiment in a line: Synergistic antibacterial activity against Staphylococcus aureus assessed as fractional inhibitory concentration index in presence of ampicillin by checkerboard assay. The class given is functional.
Experiment [22] relates to Pseudomonas aeruginosa. Nature of the experiment: Inhibition of beta-lactamase in Pseudomonas aeruginosa assessed as potentiation of ampicillin-induced antibacterial activity by measuring ampicillin MIC incubated for 24 hrs by CLSI method (Rvb >200 ug/ml).
Experiment [23] relates to Streptococcus pyogenes. Nature of the experiment: Inhibition of beta-lactamase in Streptococcus pyogenes assessed as potentiation of ampicillin-induced antibacterial activity by measuring ampicillin MIC incubated for 24 hrs by CLSI method (Rvb > 200 ug/ml).
The test system of experiment [24] is Pseudomonas aeruginosa. The experiment in a line: Synergistic antibacterial activity against Pseudomonas aeruginosa assessed as fractional inhibitory concentration index in presence of ampicillin by checkerboard assay. It is filed as functional.
Experiment [25] deals with Escherichia coli. The experiment in a line: Inhibition of beta-lactamase in Escherichia coli assessed as potentiation of ampicillin-induced antibacterial activity by measuring ampicillin MIC incubated for 24 hrs by CLSI method (reference value: 100 ug/ml).
Experiment [26] relates to Staphylococcus aureus. Nature of the experiment: Inhibition of beta-lactamase in Staphylococcus aureus assessed as potentiation of ampicillin-induced antibacterial activity by measuring ampicillin MIC incubated for 24 hrs by CLSI method (Rvb > 200 ug/ml).

Molecules are shown by their SMILES. Some results are limits rather than exact numbers.

Regarding `NC(=O)[C@@H]1CC[C@@H]2CN1C(=O)N2OS(=O)(=O)O`, the MIC with Klebsiella pneumoniae [1] was determined as 1 µg/mL; in experiment [2] it was 0.5 µg/mL; in the experiment on Klebsiella pneumoniae [3] it was 0.5 µg/mL; with Escherichia coli [4], 4 µg/mL; in the experiment with Klebsiella pneumoniae [5], 0.5 µg/mL; in the experiment with Escherichia coli [6], 2 µg/mL.

With `NCc1ccc(C(=O)N[C@H]2Cc3cccc(C(=O)O)c3O[B-]2(O)O)cc1`, the MIC in [7] was under 16 µg/mL; in experiment [8], under 8 µg/mL; in experiment [9], under 4 µg/mL; in [10], under 1 µg/mL; in experiment [11] it was 4 µg/mL; in [12], under 0.5 µg/mL. Further, the MIC in [13] is under 1 µg/mL.

As for `C[C@H]1[C@H]2CC[C@H]3[C@@H]4CC=C5C[C@@H](N(C)C)CC[C@]5(C)[C@H]4CC[C@]23CN1C`, the MIC in [14] was 8 µg/mL; in [15] it was 256 µg/mL; in experiment [16], 8 µg/mL; in [17] it was 32 µg/mL; in [18], 2 µg/mL; in experiment [19], 0.25 µg/mL.

Take `CC[C@H](/C=C/[C@@H](C)[C@H]1CC[C@H]2[C@@H]3CC=C4C[C@@H](O)CC[C@]4(C)[C@H]3CC[C@]12C)C(C)C` [STIGMASTEROL]: the “fractional inhibitory concentration index (FICI)” value with Streptococcus pyogenes [20], with Staphylococcus aureus [21] and with Pseudomonas aeruginosa [24] was under 0.5 throughout. Further, the MIC with Pseudomonas aeruginosa [22] was 6.25 µg/mL; in the experiment with Streptococcus pyogenes [23], 1.56 µg/mL; with Escherichia coli [25], 6.25 µg/mL; with Staphylococcus aureus [26] it was 3.13 µg/mL.
